Assay results from patent US10166235B2, “Kinetin/zeatin topical formulation” (Dow Pharmaceutical Sciences, Inc., priority 2013, dated 2019).

Experiments:
[1] = Comparison with prior art formulations: dissolved kinetin or zeatin in GDM-12, Transcutol, isostearic acid and mixtures by HPLC; settings: for Synergistic Increase in Solubility %: zeatin
Experimental: (§1) Kinetin was combined and mixed in separate beakers containing GDM-12, Transcutol, and Isostearic Acid, and the concentration of dissolved kinetin in each beaker was determined by HPLC. Kinetin was then combined and mixed in separate beakers containing GDM-12 and Transcutol (1:1) and containing GDM-12 and Isostearic acid.
as §1, with “Zeatin” for “Kinetin”, “zeatin” for “kinetin”

[2] = distilled water / water; cited from earlier work
[3] = Solubility of kinetin or zeatin alone in GDM-12, GDO-12, isostearic acid and 50:50 mixtures, determined by HPLC; settings: for calculated solubility: based on independent solubility in each solvent
Experimental: (§2) Solubilization of kinetin and zeatin was determined by HPLC.

[4] = Solubility of kinetin or zeatin when both kinetin and zeatin are dissolved, determined by HPLC
Experimental: as §2

[5] = solvent GDM-12 + Isostearic Acid
[6] = solvent GDM-12 + Transcutol (1:1)
[7] = 50% GDM-12 and 50% isostearic acid
[8] = 50% GDO-12 and 50% isostearic acid

C/C(=C\CNc1ncnc2nc[nH]c12)CO [Zeatin, (E)-2-methyl-4-(7H-purin-6-ylamino)but-2-en-1-ol]
Zeatin % w/w Experimental ([1]; solvent GDM-12): .119 % w/w
Zeatin % w/w Calculated [1, 5]: .229 % w/w
Zeatin % w/w Experimental [1, 5]: .440 % w/w
Zeatin % w/w Calculated [1, 6]: .345 % w/w
Zeatin % w/w Experimental [1, 6]: .365 % w/w
Zeatin % w/w Experimental ([1]; solvent Isostearic Acid): .299 % w/w
Zeatin % w/w Experimental ([1]; solvent Transcutol): .570 % w/w
Synergistic Increase in Solubility % [1, 5]: 92%
Synergistic Increase in Solubility % ([1]; solvent GDM-12 + Isostearic Acid, listed as zeatin): 92%
Synergistic Increase in Solubility % [1, 6]: 0%
Synergistic Increase in Solubility % ([1]; solvent GDM-12 + Transcutol (1:1), listed as zeatin): does not provide a synergistic increase
solubility in water [2]: practically insoluble
increase over the calculated solubility [3, 7]: 109%
calculated solubility [3, 7]: 0.21 wt %
increase over the calculated solubility [3, 8]: 100%
calculated solubility [3, 8]: 0.20 wt %
solubility ([3]; in 50% GDM-12 and 50% isostearic acid): 0.44 % w/w
solubility ([3]; in 50% GDO-12 and 50% isostearic acid): 0.40 % w/w
solubility ([3]; in 100% GDM-12 (PEG-12 Glycerol dimyristate)): 0.12 % w/w
solubility ([3]; in 100% GDO-12 (PEG-12 Glycerol dioleate)): 0.10 % w/w
solubility ([3]; in 100% isostearic acid): 0.30 % w/w
calculated solubility ([4]; both kinetin and zeatin combined, 50% GDM-12 and 50% isostearic acid): 0.19 wt %
increase over the calculated solubility ([4]; both kinetin and zeatin dissolved, 50% GDM-12 and 50% isostearic acid): 121%
solubility ([4]; both kinetin and zeatin dissolved, in 50% GDM-12 and 50% isostearic acid): 0.42 % w/w
solubility ([4]; both kinetin and zeatin dissolved, in 100% GDM-12): 0.10 % w/w
solubility ([4]; both kinetin and zeatin dissolved, in 100% isostearic acid): 0.28 % w/w

c1coc(CNc2ncnc3nc[nH]c23)c1 [Kinetin, N^6-furfuryladenine]
Kinetin % w/w Experimental ([1]; solvent GDM-12): .164 % w/w
Kinetin % w/w Calculated [1, 5]: .229 % w/w
Kinetin % w/w Experimental [1, 5]: .422 % w/w
Kinetin % w/w Calculated [1, 6]: .281 % w/w
Kinetin % w/w Experimental [1, 6]: .287 % w/w
Kinetin % w/w Experimental ([1]; solvent Isostearic Acid): .299 % w/w
Kinetin % w/w Experimental ([1]; solvent Transcutol): .397 % w/w
